Data: US20230279025A1, “KRAS G12D INHIBITORS” (Mirati Therapeutics, Inc., priority 2020, published 2023)

How the values were obtained:
KRas G12D [1] = biological target: T1, KRas G12D (Homo sapiens (Human), UniProt P01116, G12D); experiment: KRas G12D Surface Plasmon Resonance (SPR) Binding Assay; settings: Biacore T200, immobilized biotinylated KRAS protein, 1:1 binding model
Procedure: Briefly, 1L of 1.05X HBS-Mg buffer (262.5 mM Bioultra Hepes, pH 7.5, 157.5 mM NaCl, 105 mM MgCl2, 0.525 mM TCEP, 0.0305% Brij-35) was prepared and filter sterilized using a 0.22 μm bottle top filter. Approximately 50 mL of 1.05X HBS-Mg buffer was removed and saved for future dilutions. A 50 mL aliquot of DMSO (Sigma Aldrich DMSO Lot. #SHBK2079) was added and continued to stir for 10 minutes, creating the final 1.0X HBS-Mg buffer (250 mM Bioultra Hepes pH 7.5, 150 mM NaCl, 100 mM MgCl2, 0.5 mM TCEP, 0.03% Brij-35).
Biacore T200 instrument was primed using 1.0X HBS-Mg buffer before docking a GE Streptavidin (SA) chip and then primed two additional times prior to beginning the immobilization step. All immobilized protein mixtures were created using 3-5 mg/mL Biotinylated Avidin-tagged KRAS protein using the following immobilization settings: SA chip type, 1 flow cells per cycle, 720 second contact time, and 5 ul/min flow rate. Normalization of the detector was also performed during the immobilization step using the GE BiaNormalize solution.
All compounds were diluted to 10 mM in 100% DMSO prior to being diluted 20X in 1.05X buffer. Another 10X dilution was created using 1.0X buffer prior to performing a series of 3X dilutions to create a compound concentration curve using the following assay settings: 20C analysis temperature, General Settings=10 Hz data collection rate and multi-detection; Assay Steps=all set to LMW kinetics; Cycle Types=LMW kinetics (60 s contact time, 120 s dissociation time, 100 ul/min flow rate, extra wash after injection with 50% DMSO, flow path 1,2,3,4); Flow path detection=2-1, 4-3). Data evaluation was performed using the Biacore T200 Evaluation software and data fit to 1:1 binding model. ND=not determined.
Target sequence in this assay (P01116-2 other isoform, or with tags, fused parts or gaps G12D): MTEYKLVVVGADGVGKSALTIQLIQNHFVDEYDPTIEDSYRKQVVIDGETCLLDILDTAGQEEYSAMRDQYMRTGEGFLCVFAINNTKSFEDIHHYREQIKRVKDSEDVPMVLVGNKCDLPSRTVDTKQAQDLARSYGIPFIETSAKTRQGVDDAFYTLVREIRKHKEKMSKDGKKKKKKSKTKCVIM

KRas G12D [2] = biological target: T1, KRas G12D; experiment: KRas G12D Binding Assay (TR-FRET displacement of Cy5 labelled tracer); settings: GDP-loaded KRAS G12D (amino acids 1:169), 60 minute incubation at 22° C.
Procedure: After a 60 minute incubation at 22° C., the reaction was measured using a PerkinElmer EnVision multimode plate reader via TR-FRET dual wavelength detection, and the percent of control (POC) calculated using a ratiometric emission factor. […] The POC values were fit to a 4-parameter logistic curve and the IC50 value was determined as the concentration where the curve crosses 50 POC.
ND stands for “not determined.”
Target sequence in this assay (P01116 other isoform, or with tags, fused parts or gaps G12D): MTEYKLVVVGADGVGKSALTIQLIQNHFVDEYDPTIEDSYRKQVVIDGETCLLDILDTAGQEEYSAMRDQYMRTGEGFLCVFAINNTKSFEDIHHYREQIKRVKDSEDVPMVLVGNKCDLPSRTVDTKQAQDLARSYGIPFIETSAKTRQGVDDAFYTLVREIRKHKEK

Compound: CCO[C@@H]1C[C@@H](COc2nc(N3C[C@H]4CC[C@@H](C3)N4)c3cnc(-c4cccc5cccc(Cl)c45)c(F)c3n2)N(C)C1 [Example 43, 4-((1R,5S)-3,8-diazabicyclo[3.2.1]octan-3-yl)-7-(8-chloronaphthalen-1-yl)-2-(((2S,4R)-4-ethoxy-1-methylpyrrolidin-2-yl)methoxy)-8-fluoropyrido[4,3-d]pyrimidine]
- Kd (KRas G12D [1]): 0.188 µM
- IC50 (KRas G12D [2]): 0.0722 µM

Compound: CN1CCC[C@H]1COc1nc(N2C[C@H]3CC[C@@H](C2)N3)c2cnc(-c3cccc4ccc(F)c(Cl)c34)c(F)c2n1 [Example 44, 4-((1R,5S)-3,8-diazabicyclo[3.2.1]octan-3-yl)-7-(8-chloro-7-fluoronaphthalen-1-yl)-8-fluoro-2-(((S)-1-methylpyrrolidin-2-yl)methoxy)pyrido[4,3-d]pyrimidine]
- Kd (KRas G12D [1]): 0.0317 µM
- IC50 (KRas G12D [2]): 0.0337 µM

Compound: Fc1c(-c2cccc3cccc(Cl)c23)ncc2c(N3C[C@H]4CC[C@@H](C3)N4)nc(OCC34CCCN3CCC4)nc12 [Example 45, 4-((1R,5S)-3,8-diazabicyclo[3.2.1]octan-3-yl)-7-(8-chloronaphthalen-1-yl)-8-fluoro-2-((tetrahydro-1H-pyrrolizin-7a(5H)-yl)methoxy)pyrido[4,3-d]pyrimidine]
- Kd (KRas G12D [1]): 0.0051 µM
- IC50 (KRas G12D [2]): 0.0055 µM

Compound: Oc1cc(-c2ncc3c(N4C[C@H]5CC[C@@H](C4)N5)nc(OCC4(C(F)(F)F)CCCC4)nc3c2F)c2ccccc2c1 [Example 46, 4-(4-((1R,5S)-3,8-diazabicyclo[3.2.1]octan-3-yl)-8-fluoro-2-((1-(trifluoromethyl)cyclopentyl)methoxy)pyrido[4,3-d]pyrimidin-7-yl)naphthalen-2-ol]
- Kd (KRas G12D [1]): 0.798 µM
- IC50 (KRas G12D [2]): 0.721 µM

Compound: CCCOc1nc(N2C[C@H]3CC[C@@H](C2)N3)c2cnc(-c3cc(O)cc4ccccc34)c(F)c2n1 [Example 47, 4-(4-((1R,5S)-3,8-diazabicyclo[3.2.1]octan-3-yl)-8-fluoro-2-propoxypyrido[4,3-d]pyrimidin-7-yl)naphthalen-2-ol]
- Kd (KRas G12D [1]): 0.51 µM
- IC50 (KRas G12D [2]): 0.265 µM

Compound: Oc1cc(-c2ncc3c(N4C[C@H]5CC[C@@H](C4)N5)nc(OCC(F)(F)F)nc3c2F)c2ccccc2c1 [Example 48, 4-(4-((1R,5S)-3,8-diazabicyclo[3.2.1]octan-3-yl)-8-fluoro-2-(2,2,2-trifluoroethoxy)pyrido[4,3-d]pyrimidin-7-yl)naphthalen-2-ol]
- Kd (KRas G12D [1]): 0.931 µM
- IC50 (KRas G12D [2]): 0.434 µM

Compound: Oc1cc(-c2ncc3c(N4C[C@H]5CC[C@@H](C4)N5)nc(OC[C@@H]4CCCN4)nc3c2F)c2ccccc2c1 [Example 50, 4-(4-((1R,5S)-3,8-diazabicyclo[3.2.1]octan-3-yl)-8-fluoro-2-(((S)-pyrrolidin-2-yl)methoxy)pyrido[4,3-d]pyrimidin-7-yl)naphthalen-2-ol]
- Kd (KRas G12D [1]): 0.0021 µM
- IC50 (KRas G12D [2]): 0.0025 µM

Compound: Oc1cc(-c2ncc3c(N4C[C@H]5CC[C@@H](C4)N5)nc(OCC4(C(F)(F)F)CC4)nc3c2F)c2ccccc2c1 [Example 51, 4-(4-((1R,5S)-3,8-diazabicyclo[3.2.1]octan-3-yl)-8-fluoro-2-((1-(trifluoromethyl)cyclopropyl)methoxy)pyrido[4,3-d]pyrimidin-7-yl)naphthalen-2-ol]
- Kd (KRas G12D [1]): 0.611 µM
- IC50 (KRas G12D [2]): 0.292 µM

Compound: Oc1cc(-c2ncc3c(N4C[C@H]5CC[C@@H](C4)N5)nc(OCC(F)(F)C(F)F)nc3c2F)c2ccccc2c1 [Example 52, 4-(4-((1R,5S)-3,8-diazabicyclo[3.2.1]octan-3-yl)-8-fluoro-2-(2,2,3,3-tetrafluoropropoxy)pyrido[4,3-d]pyrimidin-7-yl)naphthalen-2-ol]
- Kd (KRas G12D [1]): 0.507 µM
- IC50 (KRas G12D [2]): 0.318 µM

Compound: Fc1c(-c2cccc3cccc(Cl)c23)ncc2c(N3C[C@H]4CC[C@@H](C3)N4)nc(OCC3COC3)nc12 [Example 53, 4-((1R,5S)-3,8-diazabicyclo[3.2.1]octan-3-yl)-7-(8-chloronaphthalen-1-yl)-8-fluoro-2-(oxetan-3-ylmethoxy)pyrido[4,3-d]pyrimidine]
- Kd (KRas G12D [1]): 4.37 µM
- IC50 (KRas G12D [2]): 1.88 µM

Compound: Fc1c(-c2cccc3cccc(Cl)c23)ncc2c(N3C[C@H]4CC[C@@H](C3)N4)nc(OCC34CCCCN3CCC4)nc12 (stereo partly drawn) [Example 54, 4-((1R,5S)-3,8-diazabicyclo[3.2.1]octan-3-yl)-7-(8-chloronaphthalen-1-yl)-8-fluoro-2-((hexahydroindolizin-8a(1H)-yl)methoxy)pyrido[4,3-d]pyrimidine]
- Kd (KRas G12D [1]): 0.118 µM
- IC50 (KRas G12D [2]): 0.0687 µM

Compound: OC[C@H](O)COc1nc(N2C[C@H]3CC[C@@H](C2)N3)c2cnc(-c3cccc4cccc(Cl)c34)c(F)c2n1 [Example 55, (S)-3-((4-((1R,5S)-3,8-diazabicyclo[3.2.1]octan-3-yl)-7-(8-chloronaphthalen-1-yl)-8-fluoropyrido[4,3-d]pyrimidin-2-yl)oxy)propane-1,2-diol]
- Kd (KRas G12D [1]): 22.4 µM
- IC50 (KRas G12D [2]): 6.13 µM

Compound: OC[C@@H](O)COc1nc(N2C[C@H]3CC[C@@H](C2)N3)c2cnc(-c3cccc4cccc(Cl)c34)c(F)c2n1 [Example 56, (R)-3-((4-((1R,5S)-3,8-diazabicyclo[3.2.1]octan-3-yl)-7-(8-chloronaphthalen-1-yl)-8-fluoropyrido[4,3-d]pyrimidin-2-yl)oxy)propane-1,2-diol]
- Kd (KRas G12D [1]): 5.17 µM
- IC50 (KRas G12D [2]): 5.92 µM

Compound: OCC(O)CCOc1nc(N2C[C@H]3CC[C@@H](C2)N3)c2cnc(-c3cccc4cccc(Cl)c34)c(F)c2n1 (stereo partly drawn) [Example 57, 4-((4-((1R,5S)-3,8-diazabicyclo[3.2.1]octan-3-yl)-7-(8-chloronaphthalen-1-yl)-8-fluoropyrido[4,3-d]pyrimidin-2-yl)oxy)butane-1,2-diol]
- Kd (KRas G12D [1]): > 1000 µM
- IC50 (KRas G12D [2]): 7.29 µM

Compound: OCC[C@@H](CO)Oc1nc(N2C[C@H]3CC[C@@H](C2)N3)c2cnc(-c3cccc4cccc(Cl)c34)c(F)c2n1 [Example 58, (S)-2-((4-((1R,5S)-3,8-diazabicyclo[3.2.1]octan-3-yl)-7-(8-chloronaphthalen-1-yl)-8-fluoropyrido[4,3-d]pyrimidin-2-yl)oxy)butane-1,4-diol]
- Kd (KRas G12D [1]): 4.73 µM
- IC50 (KRas G12D [2]): 2.33 µM

Compound: OCC(COc1nc(N2C[C@H]3CC[C@@H](C2)N3)c2cnc(-c3cccc4cccc(Cl)c34)c(F)c2n1)c1cccnc1 (stereo partly drawn) [Example 59, 3-((4-((1R,5S)-3,8-diazabicyclo[3.2.1]octan-3-yl)-7-(8-chloronaphthalen-1-yl)-8-fluoropyrido[4,3-d]pyrimidin-2-yl)oxy)-2-(pyridin-3-yl)propan-1-ol]
- Kd (KRas G12D [1]): 1.12 µM
- IC50 (KRas G12D [2]): 0.946 µM

Compound: O=C(O)CCOc1nc(N2C[C@H]3CC[C@@H](C2)N3)c2cnc(-c3cccc4cccc(Cl)c34)c(F)c2n1 [Example 61, 3-((4-((1R,5S)-3,8-diazabicyclo[3.2.1]octan-3-yl)-7-(8-chloronaphthalen-1-yl)-8-fluoropyrido[4,3-d]pyrimidin-2-yl)oxy)propanoic acid compound with 2,2,2-trifluoroacetaldehyde]
- Kd (KRas G12D [1]): 0.116 µM
- IC50 (KRas G12D [2]): 4.08 µM

Compound: Oc1cc(-c2ncc3c(N4C[C@H]5CC[C@@H](C4)N5)nc(OCCc4ccccc4F)nc3c2F)c2ccccc2c1 [Example 67, 4-(4-((1R,5S)-3,8-diazabicyclo[3.2.1]octan-3-yl)-8-fluoro-2-(2-fluorophenethoxy)pyrido[4,3-d]pyrimidin-7-yl)naphthalen-2-ol]
- Kd (KRas G12D [1]): 1.15 µM
- IC50 (KRas G12D [2]): 1.25 µM
